Target: T1, recombinant PDE IVA enzyme (Homo sapiens, UniProt P27815)
T1 construct: made in house; host or cells: yeast (inducible vector)
Test: Isolated Recombinant Human PDE IVA Enzyme
Type: biochemical
Details: 0.1 μM [3H]-cAMP, pH 7.5, 30° C.
Description: 1. Isolated Recombinant Human PDE IVA Enzyme
A gene encoding human PDE IV has been cloned from human monocytes (Livi, et al., 1990, Molecular and Cellular Biology, 10, 2678). Using similar procedures we have cloned human PDE IV genes from a number of sources including eosinophils, neutrophils, lymphocytes, monocytes, brain and neuronal tissues. These genes have been transfected into yeast using an inducible vector and various recombinant proteins have been expressed which have the biochemical characteristics of PDE IV (Beavo and Reifsnyder, 1990, TIPS, 11, 150). These recombinant enzymes, particularly the human eosinophil recombinant PDE IVA, have been used as the basis of a screen for potent, selective PDE IV inhibitors.
The enzymes were purified to isoenzyme homogeneity using standard chromatographic techniques.
Phosphodiesterase activity was assayed as follows. The reaction was conducted in 150 μl of standard mixture containing (final concentrations): 50 mM 2-[[tris(hydroxymethyl)methyl]amino]-1-ethanesulphonic acid (TES) --NaOH buffer (pH 7.5), 10 mM MgCl2, 0.1 μM [^3 H]-cAMP and vehicle or various concentrations of the test compounds. […] Recovery of [^3 H]-5'AMP was determined using the [^14 C]-5'AMP and all assays were conducted in the linear range of the reaction. Results were expressed as IC50 values.

T1 sequence (P27815 whole entry): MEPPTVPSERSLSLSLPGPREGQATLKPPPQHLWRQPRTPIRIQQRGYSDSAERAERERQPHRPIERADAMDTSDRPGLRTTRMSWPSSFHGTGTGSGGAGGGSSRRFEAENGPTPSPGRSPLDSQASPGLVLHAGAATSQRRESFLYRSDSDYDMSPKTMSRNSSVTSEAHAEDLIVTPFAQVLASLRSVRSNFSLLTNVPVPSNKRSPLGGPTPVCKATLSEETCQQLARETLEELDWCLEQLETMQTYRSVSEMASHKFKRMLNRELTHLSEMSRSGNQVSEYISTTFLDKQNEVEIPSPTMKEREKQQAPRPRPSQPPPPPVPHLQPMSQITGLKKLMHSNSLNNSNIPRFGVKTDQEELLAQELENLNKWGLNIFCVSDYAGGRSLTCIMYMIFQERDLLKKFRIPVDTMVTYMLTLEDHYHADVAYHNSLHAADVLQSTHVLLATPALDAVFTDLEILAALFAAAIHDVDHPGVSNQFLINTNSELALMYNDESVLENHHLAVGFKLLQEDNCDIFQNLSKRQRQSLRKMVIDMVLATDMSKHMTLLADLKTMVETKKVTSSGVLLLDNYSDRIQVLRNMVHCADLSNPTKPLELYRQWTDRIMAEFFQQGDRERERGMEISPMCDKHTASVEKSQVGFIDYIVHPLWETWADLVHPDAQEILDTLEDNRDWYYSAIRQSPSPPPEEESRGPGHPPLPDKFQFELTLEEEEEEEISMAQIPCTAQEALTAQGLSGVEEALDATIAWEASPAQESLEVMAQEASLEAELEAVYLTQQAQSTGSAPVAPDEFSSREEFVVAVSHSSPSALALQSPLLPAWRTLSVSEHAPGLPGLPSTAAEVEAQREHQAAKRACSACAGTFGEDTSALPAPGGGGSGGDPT

## CNC(=C[N+](=O)[O-])Nc1cccc([C@@H](Cc2ccncc2)c2ccc(OC)c(OC3CCCC3)c2)c1 [Example 2, (R)-N-{(EIZ)-1-{3-[1-[3-Cyclopentyloxy-4-methoxyphenyl]-2-(4-pyridinyl)ethyl]anilino}-2-nitroethenyl}-N-methylamine]
  IC50: 3.3 nM

## CNC(=NC#N)Nc1cccc([C@@H](Cc2ccncc2)c2ccc(OC)c(OC3CCCC3)c2)c1 [Example 4, (R)-N"-Cyano-N'-{3-[1-[3-cyclopentyloxy-4-methoxyphenyl]-2-(4-pyridinyl)ethyl]phenyl}-N-methylamine]
  IC50: 0.5 nM

Reference: patent US5859034A, “Tri-substituted phenyl compounds which have useful pharmaceutical activity” (Celltech Therapeutics, Limited, priority 1996, dated 1999)
